Assay results: patent US4874882A, “Process for preparing monosodium phosphoenolpyruvate” (Ube Industries, Ltd., priority 1986, dated 1989)

Assays:
[1] = tested on: ischemic kidney of beagle; assay: Effect on ischemic kidney of beagle (BUN and creatinine value, recovery of renal function); type: in vivo, male beagles
Method: The animals used in this experiment were 6 male beagles, and were grouped into a group of 3 beagles to which the injection of PEP·Na prepared in Example should be administered and a group of 3 beagles to which a physiological saline should be administered, to carry out experiments as follows in the same manner as in Test Example 1.
To each of the beagles, a 5% aqueous solution of pentobarbital sodium was intravenously injected in an amount of 0.5 ml/kg (b.w.) to apply general anesthesia, and a median incision of its venter was carried out to extirpate the right kidney. Subsequently, the left kidney was exposed to infiltrate xylocaine into the surrounding portion of the renal pelvis, and the blood flow of the left renal artery was blocked for 90 minutes while handling the kidney with tender care. Thereafter, blocking was released for reperfusion. To the beagles belonging to the PEP·Na administered group, PEP·Na was intravenously administered in the form of an injection prepared in Example, with a dose of 100 mg/kg (b.w.) every time immediately after release of blocking, and, also, thereafter, PEP·Na was similarly administered with a dose of 100 mg/kg (b.w.) once a day every day. On the other hand, to the beagles belonging to the control group, physiological saline was intravenously administered in an amount of 10 ml/kg (b.w.) every time immediately after release of blocking, and, also thereafter, physiological saline was similarly administered in an amount of 10 ml/kg (b.w.) once a day.
Next, BUN and creatinine value were assayed with time to make an index showing the recovery rate of renal function. Results obtained are shown in Table 3 and Table 4 and also in FIG. 3 and FIG. 4.

[2] = tested on: ischemic kidney of rabbit; assay: Effect on ischemic kidney of rabbit (BUN and creatinine value in blood, recovery of renal function); type: in vivo, male Japanese white-strain rabbits
Source text: The animals used in this experiment were 10 male Japanese white-strain rabbits, and were grouped into a group of 5 rabbits to which the injection of monosodium phosphoenolpyruvate (hereinafter simply called "PEP·Na") prepared in Example 4 should be administered and a group of 5 rabbits to which a physiological saline should be administered,to carry out experiments as follows:
To each of the rabbits used in this experiment, a 1% aqueous solution of pentobarbital sodium was intravenously injected in an amount of 3 ml/kg (b.w.) to apply general anesthesia, and a median incision of its venter was carried out to extirpate the right kidney. Subsequently, the left kidney was exposed to infiltrate xylocaine into the surrounding portion of the renal pelvis, and the left renal artery was blocked while handling the kidney with tender care. More specifically, the blood flow of the renal artery was blocked for 60 minutes, and then released for 10 minutes, followed by blocking for more 60 minutes, to perform ischemia for 120 minutes in total. Thereafter, blocking was released for reperfusion. During these procedures, to the rabbits belonging to the PEP·Na group, PEP·Na was intravenously administered in the form of an injection prepared in Example, with a dose of 10 mg/kg (b.w.) every time immediately before release of the first and the second blocking, and, also after release of the blocking, PEP·Na was similarly administered with a dose of 10 mg/kg (b.w.) once a day. On the other hand, to the rabbits belonging to the control group, a physiological saline was intravenously administered in an amount of 1 ml/kg (b.w.) every time immediately before release of the first and the second blocking, and, also after release of the blocking, the physiological saline was similarly administered in an amount of 1 ml/kg (b.w.) once a day, every day.
Next, blood urea nitrogen (hereinafter "BUN") and creatinine value which are standards to know the morbidity of a kidney were assayed with time to make an index showing the recovery rate of renal function. Results obtained are shown in Table 1 and Table 2 and also in FIG. 1 and FIG. 2.

[3] = tested on: beagle; assay: Acute toxicity (LD50) to beagle; type: in vivo; conditions: conclusion from LD50 in beagle
Method: (§1) Acute toxicity (LD50) in the case where monosodium phosphoenolpyruvate monohydrate was administered to a beagle was examined.

[4] = Acute toxicity (LD50) to beagle; type: in vivo; conditions: dog, in vivo, beagle
Method: as §1

[5] = after 1 day, 100 mg/kg i.v. immediately after release of blocking, then once a day
[6] = after 2 days, 100 mg/kg i.v. immediately after release of blocking, then once a day
[7] = after 3 days, 100 mg/kg i.v. immediately after release of blocking, then once a day
[8] = after 4 days, 100 mg/kg i.v. immediately after release of blocking, then once a day
[9] = immediately before blocking (baseline)
[10] = after 1 day, 10 mg/kg i.v. before each release of blocking, then once a day
[11] = after 2 days, 10 mg/kg i.v. before each release of blocking, then once a day
[12] = after 3 days, 10 mg/kg i.v. before each release of blocking, then once a day
[13] = after 4 days, 10 mg/kg i.v. before each release of blocking, then once a day
[14] = after 5 days, 10 mg/kg i.v. before each release of blocking, then once a day
[15] = rabbits, 1 day (24 hours) after release of blocking
[16] = rabbits, after day 1, over a period of 4 days, vs control group

Compound: C=C(OP(=O)(O)O)C(=O)O [PEP.Na, monosodium phosphoenolpyruvate monohydrate]
- BUN of beagles in PEP.Na-administered group [1, 5]: 46 ± 8.3 mg/dL
- Creatinine value of beagles in PEP.Na-administered group [1, 5]: 3.0 ± 0.45 mg/dL
- BUN of beagles in PEP.Na-administered group [1, 6]: 63 ± 10.1 mg/dL
- Creatinine value of beagles in PEP.Na-administered group [1, 6]: 2.9 ± 0.41 mg/dL
- BUN of beagles in PEP.Na-administered group [1, 7]: 52 ± 9.6 mg/dL
- Creatinine value of beagles in PEP.Na-administered group [1, 7]: 2.5 ± 0.33 mg/dL
- BUN of beagles in PEP.Na-administered group [1, 8]: 44 ± 9.2 mg/dL
- Creatinine value of beagles in PEP.Na-administered group [1, 8]: 2.0 ± 0.31 mg/dL
- recovery of renal function ([1]; beagle): apparently effective for the recovery of renal function
- BUN compared with control group ([1]; beagles, 1 day (24 hours) after release of blocking): significantly lower value of BUN
- creatinine value compared with control group ([1]; beagles, 1 day after release of blocking): significantly lower value of creatinine value
- time course of creatinine value ([1]; beagles, after day 1, over a period of 3 days): gradually decreases thereafter over a period of 3 days
- time course of BUN ([1]; beagles, after release of blocking): reaches to a maximum after 2 days, but thereafter gradually decreases
- BUN of beagles in PEP.Na-administered group [1, 9]: 15 ± 0.5 mg/dL
- Creatinine value of beagles in PEP.Na-administered group [1, 9]: 0.8 ± 0.23 mg/dL
- BUN of rabbits in PEP.Na-administered group [2, 10]: 54.2 ± 2.2 mg/dL
- Creatinine value of rabbits in PEP.Na-administered group [2, 10]: 2.83 ± 0.74 mg/dL
- BUN of rabbits in PEP.Na-administered group [2, 11]: 58.0 ± 15.2 mg/dL
- Creatinine value of rabbits in PEP.Na-administered group [2, 11]: 2.61 ± 0.87 mg/dL
- BUN of rabbits in PEP.Na-administered group [2, 12]: 44.1 ± 10.5 mg/dL
- Creatinine value of rabbits in PEP.Na-administered group [2, 12]: 2.06 ± 0.72 mg/dL
- BUN of rabbits in PEP.Na-administered group [2, 13]: 35.5 ± 11.0 mg/dL
- Creatinine value of rabbits in PEP.Na-administered group [2, 13]: 1.73 ± 0.40 mg/dL
- BUN of rabbits in PEP.Na-administered group [2, 14]: 15.0 ± 5.8 mg/dL
- Creatinine value of rabbits in PEP.Na-administered group [2, 14]: 1.19 ± 0.17 mg/dL
- Creatinine value of rabbits in PEP.Na-administered group [2, 9]: 1.18 ± 0.06 mg/dL
- BUN of rabbits in PEP.Na-administered group ([2]; immediately before blocking (baseline), mean ± spread): 14.5 ± 1.3 mg/dL
- recovery of renal function ([2]; rabbit): apparently effective for the recovery of renal function
- BUN compared with control group [2, 15]: significantly lower value of BUN
- creatinine compared with control group [2, 15]: significantly lower value of creatinine
- time course of BUN [2, 16]: gradually decreases thereafter over a period of 4 days and gets back to the value given before blocking earlier than in control group
- time course of creatinine [2, 16]: gradually decreases thereafter over a period of 4 days and gets back to the value before blocking earlier than in control group
- safety to a living body [3]: very safe substance
- LD50 ([4]; intravenous): ≥ 1000 mg/kg
- LD50 ([4]; oral): ≥ 3000 mg/kg
